Data as given in patent publication US20190323025A1, “COMPOSITIONS AND METHODS FOR DELIVERY OF MOLECULES TO PLANTS” (BLOOMSBURG UNIVERSITY OF PENNSYLVANIA, priority 2018, published 2019).

Columns and labels:
[1] = test system: AvsYS1 avenic acid/Fe+3 transporter; experiment: Yeast growth assay in liquid medium with phytosiderophore/Fe+3 complex as the only available iron, strain DEY1453 transformed with pJKD1 (pYES2/AvsYS1) or pYES2; format: cell-based, Avena sativa; details: for growth of yeast with transporter (DEY1453:pJKD1, 53K): S. cerevisiae DEY1453:pJKD1 (pYES2/AvsYS1), YNB minimal medium pH 7.5, BPDS, iron only as Fe+3 complexed with the substance
Excerpt: AvsYS1 (Genbank FJ477297.1) was isolated using 5′RACE from the roots of iron starved oats (Avena sativa). Primers were designed by comparing one functionally confirmed phytosiderophore/Fe^+3 transporter (HvYS1) and other iron transport proteins. After obtaining a full-length clone, we subcloned the gene (AvsYS1) into a yeast galactose inducible expression vector (pYES2). The resultant plasmid was designated pJKD1. We obtained a yeast strain that lacks the ability to take up ferric iron and transformed it with pYES2 and pJKD1. The transformants were grown under identical conditions in which the only iron available was in the Fe^+3/avenic acid complex.
We engineered the AvsYS1 gene into a galactose inducible expression systems vector (pYES2). Our first major result was the functional confirmation of the AvsYS1 gene. We transformed pYES2 and pJKD1 (pYES2/AvsYS1) into a strain of S. cerevisiae (DEY1453) that lacks the ability to take up Fe^3+. In the process, we developed a new assay based on growth in liquid medium. The advantage of this assay over more traditional assays used in yeast-based PS/Fe^+3 assays is that it is quantifiable. Other assays (e.g., Murata, 2006) grow yeast on a solid plate, and qualitative growth of colonies is used. With our assay, we can generate numerical data based on the density as measured by the absorbance at 600 nm. […] Further detail is provided below.
53Y=DEY1453:pYES2 (no transporter) 53K=DEY1453:pJKD1 (pYES2/AvsYS1 [transporter]) DOB—Complete medium, supplemented w/FeSo4, ampicillin 50 YNB-minimal medium, pH7.5, BPDS (ferrous chelator), ampicillin,
Protocols included: 53Y and 53K in DOB+FeSO4, 53Y and 53K in YNB supplemented with Avenic acid; 53Y and 53K supplemented with BPA-1-068B; 53Y and 53K in YNB w/ no supplements; uninoculated YNB; uninoculated DOB.
53Y=DEY1453:pYES2 (no transporter) 53K=DEY1453:pJKD1 (pYES2/AvsYS1 [transporter]) DOB—Complete medium, supplemented w/FeSo4, ampicillin 50 YNB-minimal medium, pH7.5, BPDS (ferrous chelator), ampicillin, Ø=no supplementation
Protocols included: 53Y and 53K, supplemented with Avenic acid, 53Y and 53K supplemented with BPA-1-068B, 53Y and 53K in YNB w/ no supplements.
3Y=DEY1453:pYES2 (no transporter) 3K=DEY1453:pJKD1 (pYES2/AvsYS1 [transporter]) Strains grown in YNB/Gal, pH 7.5, Amp50, Avenic acid: Fe^+3, 5:1
Another interesting observation was made in relation to growth of the DEY1453:pJKD1 using one of the analogs complexed with Fe^+3. […] This was a very significant result because it provided strong (though not dispositive) evidence in support of our Trojan Horse delivery technology.

[2] = test system: Micro-Tom tomatoes, AvsYS1 transformants (MT*) and untransformed (MT); experiment: Hydroponic growth of Micro-Tom tomatoes under iron limiting conditions with iron provided as FeCl3/avenic acid; format: in vivo, tomato; details: Hoagland's solution (-Fe), pH 7.4, 10 μM FeCl3 complexed with 15 μM avenic acid
Excerpt: RNA was isolated from […]. A cDNA (AvsYSl) was isolated and its functionality confirmed as a phytosiderophore/Fe^+3 transporter that mitigates the effects of Iron Deficiency Chlorosis in transgenic Micro-Tom™ tomatoes when the nutrient medium is supplemented with the oat phytosiderophore, avenic acid. […] Final confirmation of the AvsYS1 transporter's functionality was obtained by comparing Micro-Tom™: AvsYS1 (MT*) transformants with non-transgenic Micro-Tom™ grown hydroponically under iron limiting conditions. (See, e.g., Shikata et al. (2016) “Micro-Tom tomato as an alternative plant model system: mutant collection and efficient transformation” Methods Mol. Biol. 1363:47-55.) Samples were grown in Hoagland's solution (—Fe) at pH 7.4. Iron was provided as 10 μM FeCl3/15 μM avenic acid. Tomatoes normally optimally grow at pH 5.6-6.8. Sample 3 was labelled MT*. This was a Micro-Tom™ variety was transformed with Fe+3/avenic acid transporter isolated from roots of iron starved oats. Sample 4 was an untransformed Micro-Tom™ (MT) plant.
MT* tomatoes grew robustly in Hoagland's solution at a pH of 7.4 supplemented with iron was provided at 10 μM FeCl3 complexed with 15 μM avenic acid.

Structure (SMILES): O=C(O)C(CO)NCCC(NCC[C@H](O)C(=O)O)C(=O)O (stereo partly drawn) [MGS-2-128BF]
- growth of yeast with transporter (DEY1453:pJKD1, 53K) [1]: supported growth as well as avenic acid

Structure (SMILES): O=C(CC(NCCC(NCC[C@H](O)C(=O)O)C(=O)O)C(=O)O)OCc1ccccc1 (stereo partly drawn) [BPA-1-068B]
- growth of yeast with transporter (DEY1453:pJKD1, 53K) [1]: able to grow
- growth of yeast with transporter (DEY1453:pJKD1, 53K) ([1]; listed as drawing 7): impressive
- growth rate of DEY1453:pJKD1 ([1]; ferric iron supplied with the analog, compared to DEY1453:pYES2 controls): slower, but undeniably robust
- uptake by the avenic acid transporter ([1]; yeast, in the presence of iron): able to be taken up

Structure (SMILES): O=C(O)[C@H](CCO)NCC[C@H](NCC[C@H](O)C(=O)O)C(=O)O [avenic acid, Avenic Acid]
- growth of MT* (AvsYS1 transformed) tomatoes ([2]; 16 days): grew robustly
- iron deficiency chlorosis in untransformed (MT) tomatoes ([2]; after 16 days): Iron deficiency chlorosis was observed in new leaves
- growth of yeast with transporter (DEY1453:pJKD1, 53K) [1]: able to grow vigorously
- growth of yeast without transporter (DEY1453:pYES2, 53Y) ([1]; S. cerevisiae DEY1453:pYES2 (no transporter), iron only as Fe+3/avenic acid complex): could not
